In patent US10500198B2, “Bis-benzylidine piperidone proteasome inhibitor with anticancer activity” (The Johns Hopkins University, priority 2013, dated 2019):

Columns and labels:
RPN13 = target: T1, RPN13 (Homo sapiens, UniProt Q16186); test: Biotin labeling assay; format: binding; settings: cell lysate or purified RP, streptavidin-peroxidase blot
T1 construct: endogenous in cells; host or cells: HeLa, HS578T cell lysate
Experimental: FIGS. 10 A-10E show a series of graphs and immunoblots showing the effects of several compounds on cell viability and proteasome activity. […] 10B and 10C show immunoblots of the proteasome activity of cell lines treated with the indicated compounds. […] IC50 values were determined in triplicate. In FIG. 10B, HeLa cells were treated for 12 hr and the cell lysate was subjected to immunoblot analysis with anti-Ubiquitin antibody. In FIG. 10C, SiHa cells were treated with the indicated compounds for 12 hr and the lysate subjected to Western blot analysis with anti-Ubiquitin antibody. HeLa cell lysate was treated with RA190B, subjected to SDS-PAGE, and probed with streptavidin-peroxidase following protein transfer to a polyvinylidene difluoride (PVDF) membrane. The streptavidin-peroxidase bound to biotinylated cellular proteins, but a striking new band at 42 kDa appeared in RA190B-treated samples (FIG. 2A). […] IC50 values were determined in triplicate.
To eliminate the possibility that another RP component was required for RA190B interaction, RPN13 or an irrelevant protein (L2) was overexpressed in bacteria. Cell lysate harvested from bacteria either with or without […] induction of ectopic protein expression was labeled with RA190B and probed by blotting with streptavidin-peroxidase. RA190B reacted strongly with a 42 kDa protein only in lysates of bacteria expressing RPN13 (FIG. 2D). […] 800 μL fractions were collected and alternate fractions (1,3,5,7,9,11,13,15,17) were analyzed for the presence of proteasomal proteins (RPN13, RPN2, RPN1 and UCH37) by Western blot analysis.
Human cells (5×10^6 HeLa or 293TT cells) were lysed using MPER (Pierce) lysis buffer (500 μL). RPN13 or HPV L2 transformed bacterial cells (500 μL of culture) were centrifuged to harvest the cells which were re-suspended in 500 μL BPER (Pierce). Cell lysates were centrifuged at 10,000 rpm briefly (2 min) at 4° C. to remove cell debris. Lysate supernatant (200 μL) was pre cleared with streptavidin dyna beads (20 μL) for 1 h at 4° C. to remove non-specific biotin binding and incubated with compounds (indicated concentrations or 20 μM) at 4° C. for 1 hr. An equal amount of each sample (20 μL of lysate) was mixed with an equal volume of Laemmli sample buffer (20 μL) (BioRad) and was boiled for 5 min. […] (24 V). Membrane was blocked with 5% BSA in PBST for 1 hr at room temperature and washed for 20 min (3×PBST). Then the membrane was probed with HRP-streptavidin (1:10,000 in PBST) for 1 hr at room temperature and washed for 30 min (3×PBST) and developed using HyGLO chemiluminescent detection reagent (Denville) for biotin recognition. For the purified enzyme assay, 19S purified proteasome (R&D Systems, Cat. No. E-366) (500 ng) in 19S buffer (20 mM HEPES, 20 mM NaCl, 1 mM DTT, 15% Glycerol) was incubated with compounds (20 μM) for 1 hr at room temperature and mixed with an equal volume of Laemmli sample buffer (20 μL) (BioRad) and was boiled for 5 min. Each sample was loaded onto gel and followed the western blot protocol mentioned above.
Purified 19S proteasome (500 ng) was incubated with corresponding compounds for 30 min and subjected to immunoblot and probed with HRP-conjugated streptavidin. In FIG. 23, the single band at 42 KDa indicates Rpn13 binding to 195. RA183B (20 μM) is used as positive control for Rpn13 binding. Competition experiments were done with RA183 (100 μM) and RA195 (100 μM) along with RA195B (20 μM).

[1] = system: HCC 1806, HS578T, BT549 and MB-231 breast cancer cells; test: Viability of triple negative breast cancer cell lines; format: cell-based; settings: 48 hours
Experimental: To test the efficacy of various RA compound derivatives on the viability of breast cancer cells, breast cancer cell lines were treated in vitro with varying concentrations of selected compounds. […] FIGS. 16A-16E are a series of data graphs and a western blot showing the efficacy of select compounds against various breast cancer cell lines. […] Briefly HS578T cell lysate was incubated with corresponding compounds for the period of 1 hr at 4 C and subjected to Western blot analysis and probed for HRP-Streptavidin.

HT3 = test: Cell viability after 48-hr treatment (Table 1); format: cell-based; settings: Homo sapiens, HT-3; 48-hr treatment; XTT assay; read-out: IC50, HT3
Experimental: (§1) Cells seeded at the concentration of 1,000 cells/well for HeLa, 5,000 cells/well for ES2 and HCT116 and 10,000-20,000 cells/well for other cell lines in 100 μL medium in 96-well plate were treated with RA series compounds at specified concentrations. […]

RPMI8226 = test: Cell viability after 48-hr treatment (Table 1); format: cell-based; settings: Homo sapiens, RPMI-8226, XTT assay
Experimental: as §1

SiHa = test: Cell viability after 48-hr treatment (Table 1); format: cell-based; settings: Homo sapiens, SiHa; 48-hr treatment; XTT assay; read-out: IC50, SiHa
Experimental: as §1

HaCaT = test: Cell viability after 48-hr treatment (Table 1); format: cell-based; settings: Homo sapiens, HaCaT; 48-hr treatment; XTT assay; read-out: IC50, HaCaT
Experimental: as §1

MM and HeLa cells = test: Annexin-V flow cytometry; format: cell-based; settings: 12 hr after treating
Experimental: Activation of ICE family members such as caspase-3 and -7 results in cleavage of poly ADP ribose polymerase (PARP) to 85 kDa and 25 kDa fragments and drives apoptosis.
Induction of apoptosis was determined using Annexin V-PE Apoptosis Detection Kit I (BD Pharmingen, San Diego, Calif.) according to the manufacturer's protocol.

HeLa = test: Cell viability after 48-hr treatment (Table 1); format: cell-based, human; settings: Homo sapiens, HeLa; 48-hr treatment; XTT assay; read-out: IC50, HeLa
Experimental: (§2) Cell viability was assayed using CellTiter 960 AQueous One Solution Reagent (Promega, Madison, Wis.). Cells seeded at the concentration of 1,000 cells/well for HeLa, 5,000 cells/well for ES2 and HCT116 and 10,000-20,000 cells/well for other cell lines in 100 μL medium in 96-well plate were treated with RA series compounds at specified concentrations. […]

OVCAR3 = test: Cell viability after 48-hr treatment (Table 1); format: cell-based, human; settings: Homo sapiens, OVCAR-3, XTT assay
Experimental: as §2

HeLa cells [2] = test: Cell surface HSP90 staining; format: cell-based, human; settings: 24 hr
From the text: Cell surface HSP90 was detected by staining with purified anti-HSP90 mAb (Stressgen), followed by PE-conjugated anti-mouse IgG1. The data were acquired with a FACSCalibur and analyzed using CellQuest software.

FaDu = test: Cell viability after 48-hr treatment (Table 1); format: cell-based; settings: Homo sapiens, FaDu; 48-hr treatment; XTT assay; read-out: IC50, FaDu
Experimental: as §2

SKOV3 = test: Cell viability after 48-hr treatment (Table 1); format: cell-based; settings: Homo sapiens, SK-OV-3; 48-hr treatment; XTT assay; read-out: IC50, SKOV3
Experimental: as §2

C33A = test: Cell viability after 48-hr treatment (Table 1); format: cell-based; settings: Homo sapiens, C-33-A; 48-hr treatment; XTT assay; read-out: IC50, C33A
Experimental: as §2

MM.1S = test: Cell viability after 48-hr treatment (Table 1); format: cell-based; settings: Homo sapiens, MM1.S, XTT assay
Experimental: as §2

4UbFL reporter = test: Proteasome inhibition in vivo (4UbFL reporter bioluminescence); settings: i.m. electroporated 4UbFL; RA190 40 mg/kg i.p., bortezomib 1.5 mg/kg i.p.
Experimental: After the indicated time points of treatment, bioluminescence was measured by injection of luciferin and imaging with an IVIS 200 (fold change±SD, *p<0.05, **p<0.01).
Two hours after gene gun delivery of the plasmid or one day post electroporation, mice were injected i.p. with 100 uL of luciferin (3 mg/mL) and anesthetized with isoflurane and optical imaging was performed for basal level luciferase expression. Images were acquired for 10 min with a Xenogen IVIS 200 (Caliper, Hopkinton, Mass.). Equally sized areas were analyzed using Living Image 2.20 software.

purified 20S proteasomes = purified 20S proteasomes (Homo sapiens, UniProt P28072+P28074+Q99436); test: 20S proteolytic activity assay; format: biochemical; settings: 1 μM, 30 min
Experimental: Actin was used as a loading control. […] In FIG. 9C-E, purified 20S proteasomes were treated for 30 min with or without compounds (1 μM) prior to the addition of the specific fluorogenic substrate for chymotryptic (9C), tryptic (9D) or PGPH (9E) hydrolytic proteasome capacities. […] DMSO was added to all samples to a final concentration of 0.1% (upper panel). The effect of DMSO is highlighted by including ubiquitin—AMC (0.5 μM) hydrolysis with 2 nM UCH37 lacking DMSO (orange, bottom panel). In FIG. 9H, purified 19S RP (500 nM) in buffer was treated with corresponding compounds 30 min at 37° C. and AMC cleavage was measured with a fluorometer for 20 min. Ubal was used as a positive control.
Release of free AMC by the enzyme reaction was determined by measuring its fluorescence at 380 nm (excitation) and 440 nm (emission). The graphs shown are representative of at least three independent determinations and each data point is the mean of ±SD of triplicate determinations.
20S proteasome cleaves the chymotryptic substrate and releases fluorescent AMC.

HOK-16B = test: Cell viability after 48-hr treatment (Table 1); format: cell-based; settings: 48-hr treatment; XTT assay; read-out: IC50, HOK-16B
Experimental: (§3) Cell viability was assayed using CellTiter 960 AQueous One Solution Reagent (Promega, Madison, Wis.). Cells seeded at the concentration of 1,000 cells/well for HeLa, 5,000 cells/well for ES2 and HCT116 and 10,000-20,000 cells/well for other cell lines in 100 μL medium in 96-well plate were treated with RA series compounds at specified concentrations. After the indicated periods, cells were incubated according to the manufacturer's protocol with the MTS labeling mixture for 1-2 hr and absorbance at 490 nm measured using a Benchmark Plus microplate spectrophotometer (BIO-RAD).

CasKi = test: Cell viability after 48-hr treatment (Table 1); format: cell-based; settings: Homo sapiens, Ca-Ski; 48-hr treatment; XTT assay; read-out: IC50, CasKi
Experimental: as §3

ES-2 = test: Cell viability after 48-hr treatment (Table 1); format: cell-based, human; settings: Homo sapiens, ES-2, XTT assay
Experimental: as §1

NCl-H929 = test: Cell viability after 48-hr treatment (Table 1); format: cell-based, human; settings: Homo sapiens, XTT assay
Experimental: as §1

HeLa cells [3] = test: Drug combination index assay; format: cell-based, human; settings: Homo sapiens, 48 hr, read-out: IC50 (single agent, Compusyn)
Experimental: The combination indices and a normalized isobologram were calculated using Compusyn software (www.combosyn.com).

[4] = Complete blood counts and blood chemistry of C57BL/6 mice carrying TC-1 tumor; settings: C57BL/6 mice with TC-1 tumor; nine doses every third day: RA190 40 mg/kg p.o., Bortezomib 1.5 mg/kg i.p.; mean ± SD, n = 3;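 also: blood drawn from the heart after euthanasia, cell counts read on an automated hemocytometer, heparinized plasma analyzed on an automated clinical chemistry analyzer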

T1 sequence (Q16186 whole entry): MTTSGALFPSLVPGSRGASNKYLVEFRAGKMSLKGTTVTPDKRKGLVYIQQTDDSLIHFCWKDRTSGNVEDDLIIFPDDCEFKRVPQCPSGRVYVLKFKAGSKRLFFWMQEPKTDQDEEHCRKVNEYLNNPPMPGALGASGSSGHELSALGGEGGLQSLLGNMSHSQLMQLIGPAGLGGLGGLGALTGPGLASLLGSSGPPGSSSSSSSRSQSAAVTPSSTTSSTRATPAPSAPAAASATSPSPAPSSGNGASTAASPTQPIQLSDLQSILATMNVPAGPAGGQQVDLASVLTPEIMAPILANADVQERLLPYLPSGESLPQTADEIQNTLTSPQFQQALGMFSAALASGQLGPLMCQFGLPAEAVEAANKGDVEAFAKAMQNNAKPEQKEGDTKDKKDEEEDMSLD

C=CC(=O)N[C@@H](Cc1ccccc1)C(=O)N1C/C(=C\c2ccc(Cl)c(Cl)c2)C(=O)/C(=C/c2ccc(Cl)c(Cl)c2)C1 [RA190Acr]
labeling of / competition for RPN13 (42 kDa band) (RPN13): competes the binding of RA190B to RPN13
potency relative to RA190 [1]: potency similar to RA190

CC(C)C[C@H](NC(=O)[C@H](Cc1ccccc1)NC(=O)c1cnccn1)B(O)O [Bortezomib, reference compound]
IC50 (HT3): < 2500 nM
IC50 (RPMI8226): 10 nM
IC50 (SiHa): 1000 nM
IC50 (HaCaT): < 2500 nM
apoptosis (Annexin-V) (MM and HeLa cells): trigger extensive apoptosis
IC50 (HeLa): 30 nM
IC50 (OVCAR3): < 2500 nM
cells with cell-surface HSP90 (HeLa cells [2]): 12.8%
IC50 (FaDu): < 2500 nM
IC50 (SKOV3): < 2500 nM
IC50 (C33A): < 2500 nM
IC50 (MM.1S): 5 nM
bioluminescence compared to vehicle alone, 4 hr after treatment (4UbFL reporter): 2 fold
increase in bioluminescence, one day post-treatment (4UbFL reporter): 4 fold
chymotryptic activity of the 20S proteasome (Suc-LLVY-AMC) (purified 20S proteasomes): inhibits
IC50 (HOK-16B): 20 nM
IC50 (CasKi): 50 nM
IC50 (ES-2): 20 nM
IC50 (NCl-H929): 5 nM
IC50 (HeLa cells [3]): 21.7 nM
ALBNEW (Albumin) [4]: 2.50 ± 0.10
ALPNEW (Alkaline Phosphatase) [4]: 49 ± 5.29
ALTNEW (Alanine Aminotransferase) [4]: 26.33 ± 2.51
AMYL (Amylase) [4]: 473 ± 57.86
ASTNEW (Aspartate aminotransferase) [4]: 53 ± 18.52
BA(Basophils) [4]: 0.07 ± 0.06
BUNNEW (Blood Urea Nitrogen) [4]: 22.66 ± 5.13
CA (Calcium) [4]: 8.83 ± 0.60
CHOL (Cholesterol) [4]: 69 ± 7.93
CK_NEW (Creatinine Kinase) [4]: 93.66 ± 3.52
CREAT (Creatinine) [4]: 0.33 ± 0.05
EO (Eosinophils) [4]: 0.64 ± 0.48
GGTNEW (Gamma-Glutamyl Transferase) [4]: 5.00 ± 0.67
GLU (Glucose) [4]: 128 ± 20.29
HCT(Hematocrit) [4]: 42.36 ± 4.15
HDLNEW (High Density Lipoprotein) [4]: 28.33 ± 4.61
Hb (Hemoglobin) [4]: 11.3 ± 0.70
LDH (lactate Dehydrogenase) [4]: 245.33 ± 96
LY(Lymphocytes) [4]: 2.12 ± 1.83
MCHC (mean corpuscular hemoglobin concentration) [4]: 26.73 ± 1.16
MCV (Mean corpuscular Volume) [4]: 55.66 ± 1.72
MO(Monocytes) [4]: 0.20 ± 0.13
MPV (Mean Platelet Volume) [4]: 5.40 ± 0.10
NE(Neutrophils) [4]: 24.06 ± 15.07
PLT (Platelet) [4]: 1346 ± 87.5
RDW (Red Blood Cell Distribution Width) [4]: 20.13 ± 0.61
TBIL1 (Total bilirubin) [4]: 0.26 ± 0.05
TPROT (Total protein) [4]: 4.40 ± 0.26
TRIG (Triglycerides) [4]: 56.66 ± 15.88
UA (Uric Acid) [4]: 2.73 ± 0.87
WBC(White Blood Cells) [4]: 24.85 ± 23.94
